Measured values published in article PMC12615753, “Glutathione as a taste modulator: molecular mechanisms of interaction with umami and sweet taste receptors” (Food Chemistry: Molecular Sciences, 2025).
Entries after “also recorded” stand apart in the source; their conditions may differ.

Target: T1, hTAS1R1 H71S/rTAS1R3 (Homo sapiens, UniProt Q7RTX1, H71S)
T1 construct: UniProtKB number Q7RTX1–1); expressed in transfected cells; host or cells: HEK293T/17 (ATCC CRL-11268)
T1 sequence (Q7RTX1 21-841 H71S): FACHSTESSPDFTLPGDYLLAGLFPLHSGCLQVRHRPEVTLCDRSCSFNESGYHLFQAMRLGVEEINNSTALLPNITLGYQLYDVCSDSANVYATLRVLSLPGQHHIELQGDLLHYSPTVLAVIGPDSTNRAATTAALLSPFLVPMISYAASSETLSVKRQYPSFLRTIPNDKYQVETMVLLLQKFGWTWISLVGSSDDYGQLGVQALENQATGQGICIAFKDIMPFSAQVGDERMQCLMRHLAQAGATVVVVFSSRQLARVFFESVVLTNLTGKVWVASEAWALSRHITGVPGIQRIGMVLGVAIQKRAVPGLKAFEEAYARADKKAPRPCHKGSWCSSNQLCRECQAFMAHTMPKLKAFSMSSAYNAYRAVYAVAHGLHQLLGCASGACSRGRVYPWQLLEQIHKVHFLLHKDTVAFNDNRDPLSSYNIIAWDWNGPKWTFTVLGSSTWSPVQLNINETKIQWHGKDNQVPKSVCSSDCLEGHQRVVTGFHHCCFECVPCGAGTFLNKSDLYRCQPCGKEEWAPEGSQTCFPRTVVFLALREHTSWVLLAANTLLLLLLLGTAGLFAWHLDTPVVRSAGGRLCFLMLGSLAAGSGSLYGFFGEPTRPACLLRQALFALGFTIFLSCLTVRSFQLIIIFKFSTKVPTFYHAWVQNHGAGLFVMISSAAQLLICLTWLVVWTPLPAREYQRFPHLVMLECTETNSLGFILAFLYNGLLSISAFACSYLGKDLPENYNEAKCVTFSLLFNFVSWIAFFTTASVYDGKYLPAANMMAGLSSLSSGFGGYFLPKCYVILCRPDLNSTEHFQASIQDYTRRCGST
T1 sequence (Q923K1 21-858 partner): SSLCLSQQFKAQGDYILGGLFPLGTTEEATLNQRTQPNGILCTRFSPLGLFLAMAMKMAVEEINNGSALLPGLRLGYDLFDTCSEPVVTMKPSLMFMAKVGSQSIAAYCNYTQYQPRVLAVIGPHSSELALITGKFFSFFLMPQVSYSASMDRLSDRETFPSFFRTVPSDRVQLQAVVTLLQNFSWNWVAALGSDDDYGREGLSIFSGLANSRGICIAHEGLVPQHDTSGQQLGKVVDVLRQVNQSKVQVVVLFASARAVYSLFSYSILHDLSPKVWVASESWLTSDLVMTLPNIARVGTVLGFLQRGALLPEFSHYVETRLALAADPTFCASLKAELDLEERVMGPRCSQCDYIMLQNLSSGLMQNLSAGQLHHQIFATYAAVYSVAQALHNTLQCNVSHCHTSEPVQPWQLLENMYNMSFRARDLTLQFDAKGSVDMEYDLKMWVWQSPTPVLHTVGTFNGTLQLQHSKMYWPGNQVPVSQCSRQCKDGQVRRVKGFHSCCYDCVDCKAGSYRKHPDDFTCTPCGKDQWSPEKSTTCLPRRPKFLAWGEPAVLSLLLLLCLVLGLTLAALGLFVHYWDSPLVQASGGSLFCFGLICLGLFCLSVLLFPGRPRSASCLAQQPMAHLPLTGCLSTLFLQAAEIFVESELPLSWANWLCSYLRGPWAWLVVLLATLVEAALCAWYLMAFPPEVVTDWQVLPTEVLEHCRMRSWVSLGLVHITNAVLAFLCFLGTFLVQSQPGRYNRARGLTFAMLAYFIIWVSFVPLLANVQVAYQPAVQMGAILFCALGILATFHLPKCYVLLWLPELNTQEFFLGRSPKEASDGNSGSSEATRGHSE
Test: Calcium assay, hTAS1R1 mutant co-expressed with rTAS1R3
Type: cell-based, rat
Conditions: for response to the agonist alone, vs WT: H71S
Source text: Chimeric Gα proteins, such as Gα16Gust44, Gα16Gi3 or Gα15i2, are widely used in the functional expression of TAS1R receptors ([Backes et al., 2015]; [Suess et al., 2015]; [Toda et al., 2021], [Toda et al., 2013], [Toda et al., 2018]; [Zhang et al., 2008]). Chimeric Gα15i2 (([Toda et al., 2013]), Supplementary data) was generated by replacing the last five residues of the C-terminal tail of rat Gα15i2 (EINLL) (UniProt number G3V6N8; https://www.uniprot.org/uniprot/) with the counterpart sequence from human GNAI2 (DCGLF) (UniProt number P04899-1) and cloning into the pcDNA3.1/Hygro vector (Invitrogen, Thermo Fisher Scientific, Illkirch, France) between the HindIII and NotI restriction sites, resulting in the plasmid pcDNA3.1-Gα15i2. Chimeric Gα16Gust44 construct have already been reported ([Raliou et al., 2011]). Briefly, Gα16Gust44 was generated by replacing the C-terminal of Gα16 with the C-terminal 44 residues of gustducin. As previously described, hTAS1R1 was amplified from human fungiform papillae cDNA and cloned and inserted into pcDNA3 (Invitrogen), generating pcDNA3-TAS1R1-WT (wild-type) ([Raliou et al., 2011]). […] The cDNA coding region of rTAS1R3 was synthesized with optimized-codon usage for human expression (Genewiz) and was cloned and inserted into the mammalian pcDNA4/myc-HisA (Invitrogen) expression vector between the EcoRI and NotI restriction sites, resulting in the plasmid pcDNA4-rTAS1R3. […] The sequence integrity of all the plasmid constructs was verified via automated DNA sequencing (Genewiz).
The hTAS1R1 mutants were co-expressed with the rTAS1R3 subunit in HEK293 cells. […] As a control, the functionality of the mutated receptors was checked after stimulation with S807 (Fig. S8), which interacts with TAS1R1-TMD ([Zhang et al., 2008]).

SMILES	EC50	response to the agonist alone, vs WT
N[C@@H](CCC(=O)N[C@@H](CS)C(=O)NCC(=O)O)C(=O)O [GSH, γ-L-glutamyl-L-cysteinyl-glycine]	> 30 mM	fully abolished; also recorded: completely abolished
N[C@@H](CCC(=O)O)C(=O)O [L-Glu, L-glutamic acid, reference compound]	–	completely suppressed; also recorded: completely abolished
CCCC(CCC)NC(=O)c1ccc2c(c1)OCO2 [S807, N-(heptan-4-yl)benzo[d][1,3]dioxole-5-carboxamide, reference compound]	–	unaffected
